Laboratory results from PMC7413254 (Nature Communications, 2020).
Where two headings read alike, the source gives them in different places.

Key:
PfCRT^3D7 [1] = target: T1, PfCRT^3D7 (Plasmodium falciparum, UniProt Q8IBZ9); experiment: cell-based; assay type: cell-based; details: total [3H]CQ transport; for inhibition at 500 µM: [test solute] = 0.5 mM; for inhibition at 1000 µM: [test solute] = 1 mM; for inhibition at 2000 µM: [test solute] = 2 mM
Procedure, shortened: (§1)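 Washed oocytes (ten per treatment) were exposed to label in pH 5.5 ND96 for 1.5 h at 27.5 °C. Buffer was then removed, cells rinsed in ice-cold ND96, lysed in SDS and counted.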

PfCRT^Ecu1110 [2] = target: T2, PfCRT^Ecu1110 (Plasmodium falciparum, UniProt Q9N623, A220S/I356L/K76T/N326D); experiment: [3H]CQ uptake into Xenopus oocytes, cis-inhibition by unlabelled solute; assay type: cell-based
T2 sequence (Q9N623 whole entry A220S/I356L/K76T/N326D): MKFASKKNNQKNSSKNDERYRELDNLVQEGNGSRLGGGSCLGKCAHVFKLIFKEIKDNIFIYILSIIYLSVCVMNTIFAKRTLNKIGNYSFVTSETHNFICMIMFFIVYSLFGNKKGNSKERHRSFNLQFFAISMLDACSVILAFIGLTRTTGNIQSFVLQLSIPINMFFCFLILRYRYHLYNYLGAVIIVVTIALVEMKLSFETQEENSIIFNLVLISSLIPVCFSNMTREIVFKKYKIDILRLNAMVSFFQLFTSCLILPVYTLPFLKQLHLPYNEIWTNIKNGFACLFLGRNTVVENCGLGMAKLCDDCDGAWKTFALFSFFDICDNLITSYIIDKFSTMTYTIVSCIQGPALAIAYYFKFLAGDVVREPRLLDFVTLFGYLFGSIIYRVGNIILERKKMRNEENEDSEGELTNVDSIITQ
Procedure, shortened: as §1

PfCRT^Dd2 [3] = target: T3, PfCRT^Dd2 (Plasmodium falciparum, UniProt Q9N623, A220S/I356T/K76T/M74I/N326S/N75E/Q271E/R371I); experiment: as above; assay type: cell-based
T3 sequence (Q9N623 whole entry A220S/I356T/K76T/M74I/N326S/N75E/Q271E/R371I): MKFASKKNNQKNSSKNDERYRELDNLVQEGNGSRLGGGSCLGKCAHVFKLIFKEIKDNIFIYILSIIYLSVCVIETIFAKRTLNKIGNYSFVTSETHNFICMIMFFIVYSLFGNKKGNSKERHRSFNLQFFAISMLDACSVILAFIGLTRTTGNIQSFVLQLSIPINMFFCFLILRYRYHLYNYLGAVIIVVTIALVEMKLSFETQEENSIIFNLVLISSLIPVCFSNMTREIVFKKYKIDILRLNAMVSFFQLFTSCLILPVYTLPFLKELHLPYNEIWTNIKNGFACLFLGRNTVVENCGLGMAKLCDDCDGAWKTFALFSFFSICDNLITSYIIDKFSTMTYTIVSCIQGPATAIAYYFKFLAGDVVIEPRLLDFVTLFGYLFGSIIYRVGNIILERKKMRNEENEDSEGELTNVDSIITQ
Procedure, shortened: as §1

non-expressing oocytes [4] = experiment: cells; assay type: cell-based, Xenopus laevis; details: Xenopus laevis, total [3H]CQ transport; for inhibition at 500 µM: [test solute] = 0.5 mM; for inhibition at 1000 µM: [test solute] = 1 mM; for inhibition at 2000 µM: [test solute] = 2 mM
Procedure, shortened: as §1

PfCRT^Ecu1110 [5] = target: T2, PfCRT^Ecu1110; experiment: cell-based; assay type: cell-based; details: […]
Procedure, shortened: (§2)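 Transport measured in Xenopus oocytes expressing the transporters, 1.5 h at 27.5 °C in ND96 pH 5.5 unless noted. For trans-stimulation, VF-6 injected in 25 nL ND96 at pH 5.0–7.0 or Na^+-free (choline) buffer; intracellular levels based on ~400 nL oocyte volume. Ten oocytes per treatment, ≥4 experiments.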

PfNT1 = target: T4, PfNT1 (Plasmodium falciparum, UniProt Q8IDM6); experiment: cell-based; assay type: cell-based; details: […], read-out: Uptake of [3H]CQ (% PfCRTDd2 control), trans-stimulation, PfNT1; SEM
T4 construct: expressed in transfected cells; host or cells: Xenopus laevis oocytes (stage V-VI), cRNA-injected
T4 sequence (Q8IDM6 whole entry): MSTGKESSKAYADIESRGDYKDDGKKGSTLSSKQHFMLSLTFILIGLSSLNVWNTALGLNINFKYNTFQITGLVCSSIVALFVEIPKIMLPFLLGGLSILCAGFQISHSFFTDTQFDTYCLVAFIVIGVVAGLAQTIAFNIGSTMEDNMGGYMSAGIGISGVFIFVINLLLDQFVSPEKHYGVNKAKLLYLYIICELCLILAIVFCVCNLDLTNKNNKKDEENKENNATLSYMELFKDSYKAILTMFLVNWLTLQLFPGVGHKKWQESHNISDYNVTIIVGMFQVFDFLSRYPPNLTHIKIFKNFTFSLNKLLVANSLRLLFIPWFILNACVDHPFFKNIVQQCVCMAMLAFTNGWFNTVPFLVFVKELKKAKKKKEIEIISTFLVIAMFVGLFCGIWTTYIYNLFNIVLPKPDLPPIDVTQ
Procedure, shortened: as §2

PfCRT^3D7 [6] = target: T1, PfCRT^3D7; experiment: cell-based; assay type: cell-based
Procedure, shortened: as §2

PfCRT^Dd2 [7] = target: T3, PfCRT^Dd2; experiment: cell-based; assay type: cell-based; details: […]; for activity at 45000 µM: [test solute]i = 45 mM (30 mM for some solutes due to solubility)
Procedure, shortened: as §2

non-expressing oocytes [8] = assay type: cell-based, Xenopus laevis; details: total [3H]CQ transport; for Uptake of [3H]CQ (% non-expressing oocyte control), trans-stimulation: non-expressing oocytes, normalised to the oocyte type control; for Uptake of [3H]CQ (% PfCRTDd2 control), trans-stimulation, non-expressing oocytes: mean ± SEM, SEM
Procedure, shortened: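 Oocytes (ten per treatment, ≥4 independent frogs/days) were preloaded by injecting VF-6 in 25 nL ND96 at pH 5.0, 5.5, 6.0 or 7.0, or Na^+-free choline buffer, then uptake run 1.5 h, 27.5 °C, ND96 pH 5.5 by default. Internal concentrations assumed ~400 nL oocyte volume.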

PfCRT [9] = experiment: Influx of VF-6 via PfCRT into the oocyte, solutes tested as potential co-substrates; assay type: cell-based, Plasmodium falciparum; set-up: key: X: Compounds that have been tested as potential co-substrates but are not required for influx of VF-6 via PfCRT into the oocyte; details: X marks the solute
PfCRT [10] = experiment: Potential co-substrates tested for influx of VF-6 via PfCRT into the oocyte; assay type: cell-based, Plasmodium falciparum; set-up: key: X: Compounds that have been tested as potential co-substrates but are not required for influx of VF-6 via PfCRT into the oocyte
[11] = PfCRT3D7 oocytes, normalised to the oocyte type control, read-out: Uptake of [3H]CQ (% PfCRT3D7 control), cis-inhibition
[12] = mean ± SEM, SEM, read-out: Uptake of [3H]CQ (% PfCRTDd2 control), cis-inhibition, PfCRT3D7
[13] = read-out: PfCRT-mediated [3H]CQ transport, cis-inhibition (% PfCRTEcu1110 control)
[14] = read-out: Uptake of [3H]CQ (% PfCRTDd2 control), cis-inhibition, PfCRTEcu1110, SEM
[15] = read-out: Uptake of [3H]CQ (% PfCRTEcu1110 control), cis-inhibition
[16] = read-out: [3H]CQ transport (% PfCRTEcu1110 control), cis-inhibition, PfCRTEcu1110, SEM
[17] = read-out: PfCRT-mediated [3H]CQ transport, cis-inhibition (% PfCRTDd2 control)
[18] = read-out: Uptake of [3H]CQ (% PfCRTDd2 control), cis-inhibition
[19] = read-out: Uptake of [3H]CQ (% PfCRTDd2 control), cis-inhibition, PfCRTDd2, SEM
[20] = read-out: [3H]CQ transport (% PfCRTDd2 control), cis-inhibition, PfCRTDd2, SEM
[21] = Oocyte, mean ± SEM, SEM, read-out: Uptake of [3H]CQ (% PfCRTDd2 control), cis-inhibition, non-expressing oocytes
[22] = non-expressing oocytes, normalised to the oocyte type control, read-out: Uptake of [3H]CQ (% non-expressing oocyte control), cis-inhibition

T1 sequence (Q8IBZ9 59-398): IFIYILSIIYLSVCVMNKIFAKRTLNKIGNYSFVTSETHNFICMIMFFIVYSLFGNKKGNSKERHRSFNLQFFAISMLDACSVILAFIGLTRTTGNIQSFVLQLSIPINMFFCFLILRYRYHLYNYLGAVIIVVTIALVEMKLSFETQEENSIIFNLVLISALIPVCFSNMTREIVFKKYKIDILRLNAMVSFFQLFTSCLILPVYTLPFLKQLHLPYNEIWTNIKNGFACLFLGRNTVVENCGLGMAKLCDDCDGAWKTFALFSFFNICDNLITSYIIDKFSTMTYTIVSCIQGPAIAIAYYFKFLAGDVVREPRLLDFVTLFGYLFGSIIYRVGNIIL

Compound: N[C@@H](CCC(=O)O)C(=O)O [L-glutamic acid]
- inhibition at 500 µM (PfCRT^3D7 [1]; [11]): 100 ± 3.8%
- inhibition at 1000 µM (PfCRT^3D7 [1]; [11]): 101 ± 5.2%
- inhibition at 2000 µM (PfCRT^3D7 [1]; [11]): 98 ± 5.7%
- inhibition at 500 µM (PfCRT^3D7 [1]; [12]): 2.2 ± 0.01%
- inhibition at 1000 µM (PfCRT^3D7 [1]; [12]): 2.8 ± 0.03%
- inhibition at 2000 µM (PfCRT^3D7 [1]; [12]): 3.2 ± 0.08%
- inhibition at 500 µM (PfCRT^Ecu1110 [2]; [13]): 92 ± 4.5%
- inhibition at 1000 µM (PfCRT^Ecu1110 [2]; [13]): 93 ± 5.1%
- inhibition at 500 µM (PfCRT^Ecu1110 [2]; [14]): 31 ± 1.5%
- inhibition at 1000 µM (PfCRT^Ecu1110 [2]; [14]): 31 ± 2%
- inhibition at 2000 µM (PfCRT^Ecu1110 [2]; [14]): 32 ± 1.9%
- inhibition at 500 µM (PfCRT^Ecu1110 [2]; [15]): 94 ± 3.5%
- inhibition at 1000 µM (PfCRT^Ecu1110 [2]; [15]): 96 ± 2.4%
- inhibition at 2000 µM (PfCRT^Ecu1110 [2]; [15]): 99 ± 4.6%
- inhibition at 500 µM (PfCRT^Ecu1110 [2]; [16]): 28 ± 0.8%
- inhibition at 1000 µM (PfCRT^Ecu1110 [2]; [16]): 28 ± 0.6%
- inhibition at 2000 µM (PfCRT^Ecu1110 [2]; [16]): 29 ± 0.4%
- inhibition at 500 µM (PfCRT^Dd2 [3]; [17]): 96 ± 4.7%
- inhibition at 1000 µM (PfCRT^Dd2 [3]; [17]): 94 ± 4.2%
- inhibition at 2000 µM (PfCRT^Dd2 [3]; [17]): 94 ± 2.9%
- inhibition at 1000 µM (PfCRT^Dd2 [3]; [18]): 96 ± 2.5%
- inhibition at 2000 µM (PfCRT^Dd2 [3]; [18]): 96 ± 3.3%
- inhibition at 500 µM (PfCRT^Dd2 [3]; [19]): 98 ± 2.7%
- inhibition at 1000 µM (PfCRT^Dd2 [3]; [19]): 96 ± 2.5%
- inhibition at 2000 µM (PfCRT^Dd2 [3]; [19]): 96 ± 3.3%
- inhibition at 500 µM (PfCRT^Dd2 [3]; [20]): 96 ± 4.7%
- inhibition at 1000 µM (PfCRT^Dd2 [3]; [20]): 94 ± 4.2%
- inhibition at 2000 µM (PfCRT^Dd2 [3]; [20]): 94 ± 2.9%
- inhibition at 500 µM (non-expressing oocytes [4]; [21]): 2.5 ± 0.05%
- inhibition at 1000 µM (non-expressing oocytes [4]; [21]): 2.7 ± 0.07%
- inhibition at 2000 µM (non-expressing oocytes [4]; [21]): 3.8 ± 0.07%
- inhibition at 500 µM (non-expressing oocytes [4]; [22]): 98 ± 4.7%
- inhibition at 1000 µM (non-expressing oocytes [4]; [22]): 98 ± 3.7%
- inhibition at 2000 µM (non-expressing oocytes [4]; [22]): 98 ± 5.2%
- activity at 5000 µM (PfCRT^Ecu1110 [5]; pH 5.5, read-out: PfCRT-mediated [3H]CQ transport, trans-stimulation (% PfCRTEcu1110 control), [test solute]i = 5 mM (intracellular), PfCRTEcu1110 oocytes, normalised to oocyte type control): 97 ± 2.4%
- activity at 5000 µM (PfCRT^Ecu1110 [5]; pH 5.5, read-out: Uptake of [3H]CQ (% PfCRTEcu1110 control), trans-stimulation, PfCRTEcu1110 oocytes, [test solute]i = 5 mM, total [3H]CQ transport, normalised to the oocyte type control): 99 ± 3.6%
- activity at 45000 µM (PfCRT^Ecu1110 [5]; pH 5.5, read-out: Uptake of [3H]CQ (% PfCRTEcu1110 control), trans-stimulation, PfCRTEcu1110 oocytes, [test solute]i = 45 mM (30 mM for some solutes due to solubility), total [3H]CQ transport, normalised to the oocyte type control): 100 ± 3.7%
- activity at 5000 µM (PfCRT^Ecu1110 [5]; read-out: Uptake of [3H]CQ (% PfCRTDd2 control), trans-stimulation, PfCRTEcu1110, total [3H]CQ transport, [test solute]i = 5 mM (intracellular), mean ± SEM, SEM): 35 ± 1.5%
- activity at 45000 µM (PfCRT^Ecu1110 [5]; read-out: Uptake of [3H]CQ (% PfCRTDd2 control), trans-stimulation, PfCRTEcu1110, total [3H]CQ transport, [test solute]i = 45 mM (intracellular; 30 mM for some solutes due to solubility), mean ± SEM, SEM): 36 ± 2.1%
- activity at 5000 µM (PfNT1): 2.7 ± 0.06%
- activity at 5000 µM (PfCRT^3D7 [6]; PfCRT3D7 oocytes, [test solute]i = 5 mM, total [3H]CQ transport, normalised to the oocyte type control, read-out: Uptake of [3H]CQ (% PfCRT3D7 control), trans-stimulation): 101 ± 2.6%
- [3H]CQ transport (% PfCRT3D7 control), trans-stimulation, PfCRT3D7 (PfCRT^3D7 [6]; SEM): 0.4 ± 0.02 % PfCRT3D7 control
- activity at 5000 µM (PfCRT^3D7 [6]; [test solute]i = 5 mM (intracellular), PfCRT3D7 oocytes, normalised to oocyte type control, read-out: PfCRT-mediated [3H]CQ transport, trans-stimulation (% PfCRT3D7 control)): 99 ± 3.9%
- activity at 45000 µM (PfCRT^3D7 [6]; SEM, read-out: Uptake of [3H]CQ (% PfCRTDd2 control), trans-stimulation, PfCRT3D7): 3.3 ± 0.02%
- activity at 45000 µM (PfCRT^3D7 [6]; read-out: PfCRT-mediated [3H]CQ transport, trans-stimulation (% PfCRT3D7 control)): 97 ± 1.8%
- activity at 45000 µM (PfCRT^3D7 [6]; read-out: Uptake of [3H]CQ (% PfCRT3D7 control), trans-stimulation): 99 ± 2.6%
- activity at 5000 µM (PfCRT^3D7 [6]; total [3H]CQ transport, [test solute]i = 5 mM (intracellular), mean ± SEM, SEM, read-out: Uptake of [3H]CQ (% PfCRTDd2 control), trans-stimulation, PfCRT3D7): 3.4 ± 0.02%
- activity at 5000 µM (PfCRT^Dd2 [7]; pH 5.5, read-out: PfCRT-mediated [3H]CQ transport, trans-stimulation (% PfCRTDd2 control), [test solute]i = 5 mM (intracellular), PfCRTDd2 oocytes, normalised to oocyte type control): 99 ± 3.5%
- activity at 5000 µM (PfCRT^Dd2 [7]; pH 5.5, read-out: Uptake of [3H]CQ (% PfCRTDd2 control), trans-stimulation, PfCRTDd2, total [3H]CQ transport, [test solute]i = 5 mM (intracellular), mean ± SEM, SEM): 101 ± 2.2%
- activity at 5000 µM (PfCRT^Dd2 [7]; pH 5.5, read-out: Uptake of [3H]CQ (% PfCRTDd2 control), trans-stimulation, PfCRTDd2 oocytes, [test solute]i = 5 mM, total [3H]CQ transport, normalised to the oocyte type control): 101 ± 2.2%
- activity at 45000 µM (PfCRT^Dd2 [7]; pH 5.5, read-out: Uptake of [3H]CQ (% PfCRTDd2 control), trans-stimulation, PfCRTDd2 oocytes, total [3H]CQ transport, normalised to the oocyte type control): 96 ± 2.8%
- activity at 5000 µM (PfCRT^Dd2 [7]; pH 5.5, read-out: [3H]CQ transport (% PfCRTDd2 control), trans-stimulation, PfCRTDd2, trans-stimulation, [test solute]i = 5 mM (injected), PfCRT-mediated component (background subtracted), mean ± SEM, SEM): 99 ± 3.5%
- activity at 45000 µM (PfCRT^Dd2 [7]; pH 5.5, read-out: [3H]CQ transport (% PfCRTDd2 control), trans-stimulation, PfCRTDd2, trans-stimulation, PfCRT-mediated component (background subtracted), mean ± SEM, SEM): 94 ± 4.2%
- Uptake of [3H]CQ (% non-expressing oocyte control), trans-stimulation (non-expressing oocytes [8]; [test solute]i = 5 mM): 99 ± 2.1 % non-expressing oocyte control
- Uptake of [3H]CQ (% non-expressing oocyte control), trans-stimulation (non-expressing oocytes [8]; [test solute]i = 45 mM (30 mM for some solutes due to solubility)): 99 ± 3.3 % non-expressing oocyte control
- Uptake of [3H]CQ (% PfCRTDd2 control), trans-stimulation, non-expressing oocytes (non-expressing oocytes [8]; [test solute]i = 5 mM (intracellular)): 3.1 ± 0.08 % PfCRTDd2 control
- Uptake of [3H]CQ (% PfCRTDd2 control), trans-stimulation, non-expressing oocytes (non-expressing oocytes [8]; [test solute]i = 45 mM (intracellular; 30 mM for some solutes due to solubility)): 2.9 ± 0.05 % PfCRTDd2 control
- Compounds that have been tested as potential co-substrates but are not required for influx of VF-6 via PfCRT into the oocyte (PfCRT [9]): X
- Tested as potential co-substrate but not required for influx of VF-6 via PfCRT into the oocyte (PfCRT [10]): X
